Measurements taken from ChEMBL document CHEMBL1201862, “PubChem BioAssay data set” (2004).
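All cell lines were grown in 96-well plates and treated with compound for 48 hours. The concentration for 50% growth inhibition is given as GI50.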 Activity calls are given as the source filed them. No stated cut-off is given here; in the data, active = GI50 up to about 1.1 µM and inactive = higher.

How the values were obtained:
Assay in all cases: inhibition of tumour cell growth, NCI panel, 48 h
MCF7 = test system: MCF7
IGROV-1 = test system: IGROV-1
OVCAR-5 = test system: OVCAR-5
SK-MEL-5 = test system: SK-MEL-5
COLO 205 = test system: COLO 205
U-251 = test system: U-251
CAKI-1 = test system: CAKI-1
LOX IMVI = test system: LOX IMVI
SF-268 = test system: SF-268
NCI-H460 = test system: NCI-H460
A549 = test system: A549
OVCAR-8 = test system: OVCAR-8
OVCAR-4 = test system: OVCAR-4
Malme-3M = test system: Malme-3M
MDA-MB-435 = test system: MDA-MB-435
RPMI-8226 = test system: RPMI-8226
SNB-19 = test system: SNB-19
SK-MEL-2 = test system: SK-MEL-2
SR = test system: SR
HCC 2998 = test system: HCC 2998

Row | SMILES | GI50 (MCF7) | GI50 (IGROV-1) | GI50 (OVCAR-5) | GI50 (SK-MEL-5) | GI50 (COLO 205) | GI50 (U-251) | GI50 (CAKI-1) | GI50 (LOX IMVI) | GI50 (SF-268) | GI50 (NCI-H460) | GI50 (A549) | GI50 (OVCAR-8) | GI50 (OVCAR-4) | GI50 (Malme-3M) | GI50 (MDA-MB-435) | GI50 (RPMI-8226) | GI50 (SNB-19) | GI50 (SK-MEL-2) | GI50 (SR) | GI50 (HCC 2998)
1 | NC(=O)C1CCCNC1 (stereo unspecified) | > 100 µM (inactive) | > 100 µM (inactive) | > 100 µM (inactive) | > 100 µM (inactive) | > 100 µM (inactive) | > 100 µM (inactive) | > 100 µM (inactive) | > 100 µM (inactive) | > 100 µM (inactive) | > 100 µM (inactive) | > 100 µM (inactive) | > 100 µM (inactive) | > 100 µM (inactive) | > 100 µM (inactive) | > 100 µM (inactive) | > 100 µM (inactive) | > 100 µM (inactive) | > 100 µM (inactive) | > 100 µM (inactive) | –
2 | Cc1cc(C)nc(NC(=O)COc2ccc(Cl)cc2)c1 | 85.7 µM (inactive) | 75.3 µM (inactive) | > 100 µM (inactive) | > 100 µM (inactive) | > 100 µM (inactive) | > 100 µM (inactive) | > 100 µM (inactive) | > 100 µM (inactive) | > 100 µM (inactive) | > 100 µM (inactive) | > 100 µM (inactive) | > 100 µM (inactive) | > 100 µM (inactive) | > 100 µM (inactive) | > 100 µM (inactive) | 74.5 µM (inactive) | > 100 µM (inactive) | > 100 µM (inactive) | > 100 µM (inactive) | –
3 | N#Cc1c(N)n(C2OC(CO)C(O)C2O)c2ncnc(N)c12 (stereo unspecified) | 0.0168 µM (active) | 0.22 µM (active) | 0.0541 µM (active) | 0.0653 µM (active) | 0.0329 µM (active) | 0.114 µM (active) | 0.0463 µM (active) | 0.0165 µM (active) | 0.0597 µM (active) | 0.288 µM (active) | 0.119 µM (active) | 0.014 µM (active) | 0.049 µM (active) | 0.0367 µM (active) | 0.0212 µM (active) | 0.184 µM (active) | 0.129 µM (active) | 0.0521 µM (active) | 0.0147 µM (active) | –
4 | N#CC12CNCC1CN=N2 (stereo unspecified) | > 100 µM (inactive) | > 100 µM (inactive) | > 100 µM (inactive) | > 100 µM (inactive) | > 100 µM (inactive) | > 100 µM (inactive) | > 100 µM (inactive) | > 100 µM (inactive) | > 100 µM (inactive) | > 100 µM (inactive) | > 100 µM (inactive) | > 100 µM (inactive) | > 100 µM (inactive) | > 100 µM (inactive) | > 100 µM (inactive) | – | > 100 µM (inactive) | > 100 µM (inactive) | > 100 µM (inactive) | > 100 µM (inactive)
5 | COc1ccc(C/C=C(\C)CCO)cc1 | > 100 µM (inactive) | > 100 µM (inactive) | > 100 µM (inactive) | > 100 µM (inactive) | > 100 µM (inactive) | > 100 µM (inactive) | 38.5 µM (inactive) | > 100 µM (inactive) | > 100 µM (inactive) | > 100 µM (inactive) | > 100 µM (inactive) | > 100 µM (inactive) | > 100 µM (inactive) | – | > 100 µM (inactive) | 19.7 µM (inactive) | > 100 µM (inactive) | > 100 µM (inactive) | > 100 µM (inactive) | –
6 | COc1cc(C(c2cccc3ccccc23)N2C(=O)CCC2C(=O)O)cc(OC)c1OC (stereo unspecified) | > 100 µM (inactive) | > 100 µM (inactive) | > 100 µM (inactive) | > 100 µM (inactive) | > 100 µM (inactive) | > 100 µM (inactive) | > 100 µM (inactive) | – | > 100 µM (inactive) | > 100 µM (inactive) | > 100 µM (inactive) | > 100 µM (inactive) | > 100 µM (inactive) | > 100 µM (inactive) | > 100 µM (inactive) | > 100 µM (inactive) | > 100 µM (inactive) | > 100 µM (inactive) | > 100 µM (inactive) | –
7 | C=CC(C)(C)C(=C)C(=O)N(C)c1ccccc1I | > 100 µM (inactive) | – | > 100 µM (inactive) | 72.8 µM (inactive) | > 100 µM (inactive) | > 100 µM (inactive) | > 100 µM (inactive) | > 100 µM (inactive) | > 100 µM (inactive) | > 100 µM (inactive) | > 100 µM (inactive) | > 100 µM (inactive) | 48.3 µM (inactive) | – | > 100 µM (inactive) | > 100 µM (inactive) | > 100 µM (inactive) | > 100 µM (inactive) | > 100 µM (inactive) | > 100 µM (inactive)
8 | O=C(CC(=O)N1N=C(N(c2ccccc2)c2ccccc2)CC1c1ccccc1)Nc1cccc(Cl)c1 (stereo unspecified) | > 100 µM (inactive) | > 100 µM (inactive) | > 100 µM (inactive) | > 100 µM (inactive) | > 100 µM (inactive) | > 100 µM (inactive) | > 100 µM (inactive) | – | > 100 µM (inactive) | > 100 µM (inactive) | > 100 µM (inactive) | > 100 µM (inactive) | > 100 µM (inactive) | – | > 100 µM (inactive) | > 100 µM (inactive) | > 100 µM (inactive) | > 100 µM (inactive) | > 100 µM (inactive) | > 100 µM (inactive)
9 | Cc1nc(-c2ccccc2)c(C)n2c1nc1ccccc12 | 24 µM (inactive) | 30.4 µM (inactive) | 33.2 µM (inactive) | – | 31.3 µM (inactive) | 30.1 µM (inactive) | 34.7 µM (inactive) | 30.3 µM (inactive) | 22.1 µM (inactive) | 23.8 µM (inactive) | 34.2 µM (inactive) | 25.9 µM (inactive) | 17.2 µM (inactive) | 31.4 µM (inactive) | 24.4 µM (inactive) | 14.2 µM (inactive) | 35.6 µM (inactive) | 25.9 µM (inactive) | 19.1 µM (inactive) | –
10 | CSc1c(CC(=O)O)n(Cc2ccccc2)c2ccccc12 | > 100 µM (inactive) | > 100 µM (inactive) | > 100 µM (inactive) | > 100 µM (inactive) | > 100 µM (inactive) | > 100 µM (inactive) | > 100 µM (inactive) | > 100 µM (inactive) | > 100 µM (inactive) | 60.8 µM (inactive) | 35.8 µM (inactive) | > 100 µM (inactive) | 61.7 µM (inactive) | > 100 µM (inactive) | > 100 µM (inactive) | 71.1 µM (inactive) | > 100 µM (inactive) | > 100 µM (inactive) | > 100 µM (inactive) | –
11 | CC(=O)OC1CC[C@@]2(C)C(C1)CC(OC(C)=O)[C@@H]1C2CC(OC(C)=O)[C@]2(C)C(C(C)CC=C(c3ccc(Cl)cc3)c3ccc(Cl)cc3)CCC12 (stereo partly specified) | 38.8 µM (inactive) | > 100 µM (inactive) | 36.8 µM (inactive) | 55.1 µM (inactive) | > 100 µM (inactive) | 60.5 µM (inactive) | – | – | 59.3 µM (inactive) | 26.3 µM (inactive) | 64 µM (inactive) | 80.4 µM (inactive) | 76.6 µM (inactive) | – | > 100 µM (inactive) | 5.33 µM (inactive) | 58.6 µM (inactive) | – | 20.2 µM (inactive) | 94 µM (inactive)
